Measured values taken from ChEMBL document CHEMBL1147627, “Synthesis of cinnamic acids and related isosteres as potent and selective alpha v beta 3 receptor antagonists” (Bioorg Med Chem Lett, 2004).

Key:
Integrin alpha-V/beta-1 = Integrin alpha-V/beta-1 (Homo sapiens, UniProt P05556+P06756); test: Binding affinity towards alpha V-beta1 receptor expressed in HEK293 cells; type: cell-based
Integrin alpha-V/beta-3 [1] = target: T1, Integrin alpha-V/beta-3 (Homo sapiens, UniProt P05106+P06756); test: Binding affinity towards alpha V-beta3 receptor expressed in HEK293 cells; type: cell-based
Integrin alpha-V/beta-3 [2] = target: T1, Integrin alpha-V/beta-3; test: Binding affinity towards alpha V/beta3 receptor by solid-phase receptor binding assays (SPRA); type: protein-complex assay
Integrin alpha-V/beta-5 = Integrin alpha-V/beta-5 (Homo sapiens, UniProt P06756+P18084); test: Binding affinity towards alpha V-beta5 receptor expressed in HEK293 cells; type: cell-based
[3] = target: Integrin alpha-IIb/beta-3 (Homo sapiens, UniProt P05106+P08514); test: Binding affinity towards alpha IIb/beta3 integrin by solid-phase receptor binding assay (SPRA); type: protein-complex assay
Sequence of Integrin alpha-IIb/beta-3 (P05106 27-788 limits assumed): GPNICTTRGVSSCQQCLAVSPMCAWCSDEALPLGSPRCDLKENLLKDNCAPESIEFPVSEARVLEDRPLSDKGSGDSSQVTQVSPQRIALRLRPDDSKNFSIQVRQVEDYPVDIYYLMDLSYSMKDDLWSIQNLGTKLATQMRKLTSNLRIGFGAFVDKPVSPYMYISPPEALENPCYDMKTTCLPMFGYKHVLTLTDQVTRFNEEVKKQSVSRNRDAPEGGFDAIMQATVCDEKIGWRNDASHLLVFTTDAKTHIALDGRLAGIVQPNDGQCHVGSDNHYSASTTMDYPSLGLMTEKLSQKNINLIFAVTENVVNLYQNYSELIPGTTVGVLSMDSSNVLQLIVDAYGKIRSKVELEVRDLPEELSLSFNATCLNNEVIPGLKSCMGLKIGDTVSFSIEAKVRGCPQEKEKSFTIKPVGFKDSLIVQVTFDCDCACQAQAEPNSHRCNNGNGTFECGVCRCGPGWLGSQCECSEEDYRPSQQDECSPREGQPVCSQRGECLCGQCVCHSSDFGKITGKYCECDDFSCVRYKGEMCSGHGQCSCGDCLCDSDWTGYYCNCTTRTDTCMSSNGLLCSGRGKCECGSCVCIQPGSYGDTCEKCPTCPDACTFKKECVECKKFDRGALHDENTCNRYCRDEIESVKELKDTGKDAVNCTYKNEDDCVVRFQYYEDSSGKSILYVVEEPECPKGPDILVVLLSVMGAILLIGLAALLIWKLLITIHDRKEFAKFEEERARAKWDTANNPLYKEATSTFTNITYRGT
Sequence of Integrin alpha-IIb/beta-3 (P08514 32-887 limits assumed): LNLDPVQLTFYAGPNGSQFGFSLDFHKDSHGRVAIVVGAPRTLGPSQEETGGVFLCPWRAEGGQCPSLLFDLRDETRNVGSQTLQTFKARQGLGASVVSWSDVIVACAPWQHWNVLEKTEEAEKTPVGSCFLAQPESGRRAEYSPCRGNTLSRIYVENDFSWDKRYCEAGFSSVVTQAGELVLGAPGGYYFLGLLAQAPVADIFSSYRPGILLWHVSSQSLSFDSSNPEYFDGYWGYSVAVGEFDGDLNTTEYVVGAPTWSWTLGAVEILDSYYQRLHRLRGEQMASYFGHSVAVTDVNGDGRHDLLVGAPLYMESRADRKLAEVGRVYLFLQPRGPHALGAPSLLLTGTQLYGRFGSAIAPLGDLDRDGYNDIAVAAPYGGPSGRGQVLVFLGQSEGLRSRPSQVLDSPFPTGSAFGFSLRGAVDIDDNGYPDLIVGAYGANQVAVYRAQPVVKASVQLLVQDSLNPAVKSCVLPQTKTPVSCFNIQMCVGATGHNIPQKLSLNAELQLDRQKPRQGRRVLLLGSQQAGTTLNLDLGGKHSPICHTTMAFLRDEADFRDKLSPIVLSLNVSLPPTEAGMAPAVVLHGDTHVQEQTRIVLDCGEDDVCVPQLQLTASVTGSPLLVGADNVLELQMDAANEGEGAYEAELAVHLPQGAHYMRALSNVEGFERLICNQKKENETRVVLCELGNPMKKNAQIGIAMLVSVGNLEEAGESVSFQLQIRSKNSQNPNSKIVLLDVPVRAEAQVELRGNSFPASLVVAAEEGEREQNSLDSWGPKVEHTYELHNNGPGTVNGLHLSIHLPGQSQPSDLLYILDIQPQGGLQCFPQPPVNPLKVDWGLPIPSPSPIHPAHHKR
Sequence of Integrin alpha-IIb/beta-3 (P08514 891-1039 limits assumed): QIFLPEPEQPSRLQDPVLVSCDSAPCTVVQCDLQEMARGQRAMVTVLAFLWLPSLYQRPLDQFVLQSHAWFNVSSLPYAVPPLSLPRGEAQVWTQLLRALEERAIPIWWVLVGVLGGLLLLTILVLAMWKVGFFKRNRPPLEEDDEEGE

Sequence of Integrin alpha-V/beta-5 (P06756 31-889 limits assumed): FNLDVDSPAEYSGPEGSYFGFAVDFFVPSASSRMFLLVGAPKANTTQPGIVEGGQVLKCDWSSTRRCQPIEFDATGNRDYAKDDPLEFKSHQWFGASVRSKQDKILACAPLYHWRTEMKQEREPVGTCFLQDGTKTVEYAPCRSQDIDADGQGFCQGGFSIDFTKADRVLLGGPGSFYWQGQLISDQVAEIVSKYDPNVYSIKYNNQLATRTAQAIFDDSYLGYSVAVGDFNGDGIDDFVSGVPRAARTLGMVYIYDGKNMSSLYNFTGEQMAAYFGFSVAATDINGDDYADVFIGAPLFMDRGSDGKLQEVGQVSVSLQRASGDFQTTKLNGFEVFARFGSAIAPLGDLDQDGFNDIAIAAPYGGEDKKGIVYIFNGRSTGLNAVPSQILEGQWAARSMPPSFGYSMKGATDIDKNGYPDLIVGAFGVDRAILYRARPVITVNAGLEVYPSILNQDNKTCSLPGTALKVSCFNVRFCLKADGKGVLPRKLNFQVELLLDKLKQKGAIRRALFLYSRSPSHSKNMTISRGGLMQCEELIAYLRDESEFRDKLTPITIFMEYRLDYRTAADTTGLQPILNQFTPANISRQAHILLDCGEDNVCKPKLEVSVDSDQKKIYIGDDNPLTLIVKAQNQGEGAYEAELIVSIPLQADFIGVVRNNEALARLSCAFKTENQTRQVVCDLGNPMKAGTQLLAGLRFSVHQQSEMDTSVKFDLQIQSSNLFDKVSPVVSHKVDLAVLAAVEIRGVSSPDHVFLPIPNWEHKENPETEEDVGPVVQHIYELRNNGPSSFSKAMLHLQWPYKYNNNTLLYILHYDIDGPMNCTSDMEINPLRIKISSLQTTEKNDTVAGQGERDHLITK
Sequence of Integrin alpha-V/beta-5 (P06756 891-1048 limits assumed): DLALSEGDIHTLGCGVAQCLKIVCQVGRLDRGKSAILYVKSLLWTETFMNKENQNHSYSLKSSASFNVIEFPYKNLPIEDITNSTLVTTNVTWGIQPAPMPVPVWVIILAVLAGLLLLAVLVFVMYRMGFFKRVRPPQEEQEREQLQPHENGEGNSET
Sequence of Integrin alpha-V/beta-5 (P18084 24-799 limits assumed): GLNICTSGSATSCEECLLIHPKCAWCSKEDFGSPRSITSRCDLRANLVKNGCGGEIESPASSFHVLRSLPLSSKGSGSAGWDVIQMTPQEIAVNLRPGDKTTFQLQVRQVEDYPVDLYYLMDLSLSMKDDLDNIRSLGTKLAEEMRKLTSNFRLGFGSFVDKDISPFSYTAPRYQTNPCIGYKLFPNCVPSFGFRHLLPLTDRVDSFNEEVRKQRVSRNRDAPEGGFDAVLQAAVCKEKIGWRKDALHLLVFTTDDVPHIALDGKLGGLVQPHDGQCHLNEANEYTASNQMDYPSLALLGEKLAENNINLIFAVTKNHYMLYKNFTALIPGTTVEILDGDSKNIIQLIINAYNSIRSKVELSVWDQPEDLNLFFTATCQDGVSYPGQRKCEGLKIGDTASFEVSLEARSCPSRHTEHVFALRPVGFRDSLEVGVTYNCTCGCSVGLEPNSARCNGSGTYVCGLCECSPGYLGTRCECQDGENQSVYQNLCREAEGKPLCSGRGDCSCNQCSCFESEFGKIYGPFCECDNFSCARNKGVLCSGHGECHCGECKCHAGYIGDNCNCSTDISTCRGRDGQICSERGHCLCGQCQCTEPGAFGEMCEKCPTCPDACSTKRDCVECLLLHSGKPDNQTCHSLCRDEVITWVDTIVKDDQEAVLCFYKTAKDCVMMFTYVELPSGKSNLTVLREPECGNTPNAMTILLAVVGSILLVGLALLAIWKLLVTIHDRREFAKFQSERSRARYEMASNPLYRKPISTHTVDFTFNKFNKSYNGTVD
T1 sequence (P05106 27-788 limits assumed): as the sequence (P05106 27-788 limits assumed) above
T1 sequence (P06756 31-889 limits assumed): as the sequence (P06756 31-889 limits assumed) above
T1 sequence (P06756 891-1048 limits assumed): as the sequence (P06756 891-1048 limits assumed) above
Sequence of Integrin alpha-V/beta-1 (P05556 21-798 limits assumed): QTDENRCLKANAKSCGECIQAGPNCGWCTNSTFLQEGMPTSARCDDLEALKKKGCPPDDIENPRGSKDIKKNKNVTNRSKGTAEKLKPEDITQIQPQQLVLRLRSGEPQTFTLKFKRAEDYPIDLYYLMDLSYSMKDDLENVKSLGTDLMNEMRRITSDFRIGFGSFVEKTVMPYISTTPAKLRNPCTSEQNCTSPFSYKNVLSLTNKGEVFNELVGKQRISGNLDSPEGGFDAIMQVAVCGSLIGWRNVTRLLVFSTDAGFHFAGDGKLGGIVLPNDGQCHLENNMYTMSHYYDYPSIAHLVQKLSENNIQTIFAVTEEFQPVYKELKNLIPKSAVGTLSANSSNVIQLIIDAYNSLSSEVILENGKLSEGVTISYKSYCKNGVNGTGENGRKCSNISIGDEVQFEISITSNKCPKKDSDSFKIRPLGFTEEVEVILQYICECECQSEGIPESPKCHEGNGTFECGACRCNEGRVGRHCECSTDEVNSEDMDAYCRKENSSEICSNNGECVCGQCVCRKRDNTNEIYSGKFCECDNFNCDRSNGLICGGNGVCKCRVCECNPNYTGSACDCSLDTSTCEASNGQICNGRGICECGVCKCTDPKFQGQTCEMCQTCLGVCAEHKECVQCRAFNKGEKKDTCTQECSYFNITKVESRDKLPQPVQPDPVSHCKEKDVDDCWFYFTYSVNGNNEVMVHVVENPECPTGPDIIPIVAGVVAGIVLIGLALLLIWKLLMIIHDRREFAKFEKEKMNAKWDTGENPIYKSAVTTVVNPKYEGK
Sequence of Integrin alpha-V/beta-1 (P06756 31-889 limits assumed): as the sequence (P06756 31-889 limits assumed) above
Sequence of Integrin alpha-V/beta-1 (P06756 891-1048 limits assumed): as the sequence (P06756 891-1048 limits assumed) above

| IC50 (Integrin alpha-V/beta-1) | IC50 (Integrin alpha-V/beta-3 [1]) | IC50 (Integrin alpha-V/beta-3 [2]) | IC50 (Integrin alpha-V/beta-5) | IC50 [3] | Structure (SMILES) |
| --- | --- | --- | --- | --- | --- |
| 264 nM | 3 nM |  | 29 nM |  | Cc1cc(/C=C/C(=O)O)cc(C)c1NC(=O)c1cccc(NC2=NCCN2)c1 |
|  |  | 23 nM |  | 45 nM | N=C(N)Nc1cccc(C(=O)Nc2ccc(/C=C/C(=O)O)c(Cl)c2)c1 |
| 507 nM | 3.8 nM | 3.9 nM | 26 nM | 641 nM | O=C(O)/C=C/c1ccc(NC(=O)c2cccc(NC3=NCCCN3)c2)cc1Cl |
| 10.4 nM | 0.12 nM | 0.11 nM | 0.96 nM | 6 nM | O=C(Nc1ccc(CC(NS(=O)(=O)c2ccccc2)C(=O)O)cc1)c1cccc(NC2=NCCCN2)c1 (stereo not drawn) |
|  |  | 10.3 nM |  | 38 nM | COc1cc(/C=C/C(=O)O)ccc1NC(=O)c1cccc(NC(=N)N)c1 |
| 505 nM | 19.4 nM |  | 49 nM |  | Cc1cc(NC(=O)c2cccc(NC(=N)N)c2)ccc1/C=C/C(=O)O |
| 219 nM | 1.8 nM | 2 nM | 7.6 nM | 528 nM | O=C(O)/C=C/c1ccc(NC(=O)c2cccc(NC3=NCCCN3)c2)cc1 |
| 339 nM | 65 nM | 31 nM | 149 nM |  | N=C(N)Nc1cccc(C(=O)Nc2ccc(C3CC3C(=O)O)cc2)c1 (stereo not drawn) |
| 426 nM | 5.9 nM |  | 60 nM |  | N=C(N)Nc1cccc(C(=O)Nc2ccc(/C=C/C(=O)O)cc2Cl)c1 |
| 29 nM | 0.98 nM |  | 3.1 nM |  | CS(=O)(=O)NC(Cc1ccc(NC(=O)c2cccc(N=C(N)N)c2)cc1)C(=O)O (stereo not drawn) |
| 426 nM | 9.6 nM |  | 45 nM |  | N=C(N)Nc1cccc(C(=O)Nc2ccc(/C=C/C(=O)O)cc2F)c1 |
| 60 nM | 1.7 nM |  | 9.6 nM |  | Cc1cc(/C=C/C(=O)O)ccc1NC(=O)c1cccc(NC2=NCCCN2)c1 |
| 0.68 nM | 0.35 nM | 0.16 nM | 0.41 nM | 1000 nM | COc1cc(NC(=O)c2cccc(NC3=NCCCN3)c2)ccc1CC(NC(=O)OC(C)C)C(=O)O (stereo not drawn) |
|  |  | 3 nM |  |  | CCc1cc(/C=C/C(=O)O)ccc1NC(=O)c1cccc(NC(=N)N)c1 |
| 320 nM | 40 nM |  | 69 nM |  | O=C(Nc1ccc(C2CC2C(=O)O)cc1)c1cccc(NC2=NCCCN2)c1 (stereo not drawn) |
| 17.7 nM | 0.94 nM |  | 0.89 nM |  | CC(C)OC(=O)NC(Cc1ccc(NC(=O)c2cccc(NC3=NC(=O)CN3)c2)cc1)C(=O)O (stereo not drawn) |
| 2070 nM | 21 nM |  | 116 nM |  | Cc1cc(/C=C/C(=O)O)cc(C)c1NC(=O)c1cccc(NC(=N)N)c1 |
|  |  | 2.2 nM |  | 661 nM | COc1cc(NC(=O)c2cccc(NC3=NCCCN3)c2)ccc1/C=C/C(=O)O |
| 0.47 nM | 2.6 nM |  | 0.76 nM | 22 nM | CC(C)OC(=O)NC(Cc1ccc(NC(=O)c2cccc(N=C(N)N)c2)cc1)C(=O)O (stereo not drawn) |
| 6.7 nM | 2.5 nM |  | 1 nM |  | CC(C)(C)OC(=O)NC(Cc1ccc(NC(=O)c2cccc(N=C(N)N)c2)cc1)C(=O)O (stereo not drawn) |
| 109 nM | 13.1 nM |  | 39 nM |  | N=C(N)Nc1cccc(C(=O)Nc2ccc(/C=C/C(=O)O)cc2)c1 |
| 758 nM | 10.9 nM |  | 135 nM |  | NC(N)=Nc1cccc(C(=O)Nc2ccc(CCC(=O)O)cc2)c1 |
| 18.3 nM | 0.2 nM |  | 8.1 nM |  | N=C(N)Nc1cccc(C(=O)Nc2ccc(CC(NS(=O)(=O)c3ccccc3)C(=O)O)cc2)c1 (stereo not drawn) |
|  |  | 0.27 nM |  | 12.5 nM | O=C(Nc1ccc(CC(NS(=O)(=O)c2ccccc2)C(=O)O)cc1)c1cccc(NC2=NCCN2)c1 (stereo not drawn) |
|  |  | 1.2 nM |  |  | N=C(N)Nc1cccc(C(=O)Nc2ccc(/C=C/C(=O)O)c(C(=O)O)c2)c1 |
|  |  |  |  | 25000 nM | N=C(N)Nc1cccc(C(=O)Nc2cc(Cl)c(/C=C/C(=O)O)c(Cl)c2)c1 |
| 85 nM | 1.7 nM |  | 13 nM |  | O=C(O)/C=C/c1ccc(NC(=O)c2cccc(NC3=NCCCN3)c2)c(Cl)c1 |

| Structure (SMILES) | IC50 (Integrin alpha-V/beta-1) | IC50 (Integrin alpha-V/beta-3 [1]) | IC50 (Integrin alpha-V/beta-3 [2]) | IC50 (Integrin alpha-V/beta-5) | IC50 [3] |
| --- | --- | --- | --- | --- | --- |
| COc1cc(NC(=O)c2cccc(NC3=NCCCN3)c2)ccc1OCC(=O)O | 82 nM | 1.7 nM | 0.43 nM | 29 nM |  |
| COc1cc(NC(=O)c2cccc(NC(=N)N)c2)ccc1CC(NC(=O)OC(C)C)C(=O)O (stereo not drawn) | 1.1 nM | 0.32 nM | 1.1 nM | 0.38 nM |  |
| CC(C)(C)NC(=O)NC(Cc1ccc(NC(=O)c2cccc(N=C(N)N)c2)cc1)C(=O)O (stereo not drawn) | 4.8 nM | 2.9 nM | 3.2 nM | 3 nM |  |
| O=C(O)CCc1ccc(NC(=O)c2cccc(NC3=NCCCN3)c2)cc1C(=O)O |  |  | 6.1 nM |  |  |
| COc1cc(NC(=O)c2cccc(N=C(N)N)c2)ccc1OCC(=O)O | 222 nM | 4.3 nM | 3.2 nM | 102 nM |  |
| CC(=O)NC(Cc1ccc(NC(=O)c2cccc(N=C(N)N)c2)cc1)C(=O)O (stereo not drawn) | 16 nM | 2.6 nM |  | 40 nM |  |
| COc1cc(NC(=O)c2cccc(NC3=NCCCN3)c2)ccc1CCC(=O)O | 162 nM | 5.6 nM | 5.8 nM | 16.6 nM |  |
| N=C(N)Nc1cccc(C(=O)Nc2ccc(OCC(=O)O)cc2)c1 | 351 nM | 11.9 nM |  | 144 nM |  |
